Like-named read-outs stand apart in the source and are kept apart here.
Experiments:
Format in all cases: cell-based
[1] = target: proteins of HEK293T cells transiently overexpressing caspase-6 (Homo sapiens, UniProt Q15029); settings: exp_ref Probe; protein EFTUD2 (Q15029); analysis C6
[2] = target: proteins of HEK293T cells transiently overexpressing caspase-6 (Homo sapiens, UniProt P22314); settings: exp_ref Probe; protein UBA1 (P22314); analysis C6
[3] = target: proteins of HEK293T cells transiently overexpressing caspase-6 (Homo sapiens, UniProt Q13263); settings: protein TRIM28 (Q13263)
Sequence of proteins of HEK293T cells transiently overexpressing caspase-6 (Homo sapiens, UniProt Q13263) (Q13263 whole entry): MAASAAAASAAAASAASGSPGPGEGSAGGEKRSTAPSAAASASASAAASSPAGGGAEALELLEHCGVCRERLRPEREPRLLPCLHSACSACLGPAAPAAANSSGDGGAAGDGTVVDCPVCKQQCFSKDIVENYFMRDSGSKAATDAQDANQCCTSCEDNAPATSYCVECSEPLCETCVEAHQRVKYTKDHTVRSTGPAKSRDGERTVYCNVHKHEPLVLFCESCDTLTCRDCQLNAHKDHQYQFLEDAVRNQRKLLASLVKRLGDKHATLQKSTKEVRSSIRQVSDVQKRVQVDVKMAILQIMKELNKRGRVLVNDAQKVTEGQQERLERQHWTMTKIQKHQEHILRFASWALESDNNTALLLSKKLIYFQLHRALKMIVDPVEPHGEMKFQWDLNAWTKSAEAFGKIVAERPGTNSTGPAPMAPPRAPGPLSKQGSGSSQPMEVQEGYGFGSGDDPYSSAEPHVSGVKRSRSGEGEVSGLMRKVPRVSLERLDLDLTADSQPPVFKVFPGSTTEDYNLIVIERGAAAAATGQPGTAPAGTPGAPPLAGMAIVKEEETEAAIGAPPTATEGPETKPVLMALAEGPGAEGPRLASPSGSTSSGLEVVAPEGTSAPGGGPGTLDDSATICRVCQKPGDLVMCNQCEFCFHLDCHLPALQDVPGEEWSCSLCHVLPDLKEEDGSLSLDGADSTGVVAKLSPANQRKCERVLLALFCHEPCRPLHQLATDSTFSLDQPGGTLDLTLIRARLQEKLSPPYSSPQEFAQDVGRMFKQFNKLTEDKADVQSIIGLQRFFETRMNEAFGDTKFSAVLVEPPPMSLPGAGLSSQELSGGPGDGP

[4] = target: proteins of HEK293T cells transiently overexpressing caspase-6 (Homo sapiens, UniProt P22626); settings: exp_ref Probe; protein HNRNPA2B1 (P22626); analysis C6
Sequence of proteins of HEK293T cells transiently overexpressing caspase-6 (Homo sapiens, UniProt P22626) (P22626 whole entry): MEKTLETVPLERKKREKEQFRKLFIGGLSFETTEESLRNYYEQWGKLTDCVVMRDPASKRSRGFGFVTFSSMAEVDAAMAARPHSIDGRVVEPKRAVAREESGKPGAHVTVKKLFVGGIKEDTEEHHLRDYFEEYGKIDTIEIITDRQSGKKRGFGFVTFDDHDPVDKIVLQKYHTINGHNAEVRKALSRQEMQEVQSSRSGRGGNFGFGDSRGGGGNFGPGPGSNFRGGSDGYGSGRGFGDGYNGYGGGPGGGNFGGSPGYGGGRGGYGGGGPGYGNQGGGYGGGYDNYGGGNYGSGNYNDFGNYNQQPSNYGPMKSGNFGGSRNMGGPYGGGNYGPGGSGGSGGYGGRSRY

[5] = target: proteins of HEK293T cells transiently overexpressing caspase-6 (Homo sapiens, UniProt Q9P2E9); settings: exp_ref Probe; protein RRBP1 (Q9P2E9); analysis C6
[6] = target: proteins of HEK293T cells transiently overexpressing caspase-6 (Homo sapiens, UniProt Q15185); settings: exp_ref Probe; protein PTGES3 (Q15185); analysis C6
[7] = target: proteins of HEK293T cells transiently overexpressing caspase-6 (Homo sapiens, UniProt P35579); settings: Probe; protein MYH9 P35579
[8] = target: proteins of HEK293T cells transiently overexpressing caspase-6 (Homo sapiens, UniProt P62888); settings: exp_ref Probe; protein RPL30 (P62888); analysis C6
[9] = target: proteins of HEK293T cells transiently overexpressing caspase-6 (Homo sapiens, UniProt P13647); settings: Probe; protein KRT5 P13647
Sequence of proteins of HEK293T cells transiently overexpressing caspase-6 (Homo sapiens, UniProt P13647) (P13647 whole entry): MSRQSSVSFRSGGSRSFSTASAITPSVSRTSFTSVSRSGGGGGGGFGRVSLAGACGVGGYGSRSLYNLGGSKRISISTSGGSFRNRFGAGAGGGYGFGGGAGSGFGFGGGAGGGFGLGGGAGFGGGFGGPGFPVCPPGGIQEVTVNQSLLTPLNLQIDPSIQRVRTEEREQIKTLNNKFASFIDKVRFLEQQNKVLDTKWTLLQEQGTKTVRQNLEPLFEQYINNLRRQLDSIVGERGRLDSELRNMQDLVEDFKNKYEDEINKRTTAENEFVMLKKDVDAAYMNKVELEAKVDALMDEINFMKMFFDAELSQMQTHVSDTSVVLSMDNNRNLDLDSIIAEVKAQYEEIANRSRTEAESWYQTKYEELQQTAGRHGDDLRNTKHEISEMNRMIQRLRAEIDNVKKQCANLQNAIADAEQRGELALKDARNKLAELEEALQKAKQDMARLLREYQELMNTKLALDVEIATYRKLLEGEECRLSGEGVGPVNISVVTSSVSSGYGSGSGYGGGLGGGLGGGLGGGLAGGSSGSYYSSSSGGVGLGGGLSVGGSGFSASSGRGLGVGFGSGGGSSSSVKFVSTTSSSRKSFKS

[10] = target: proteins of HEK293T cells transiently overexpressing caspase-6 (Homo sapiens, UniProt P62263); settings: exp_ref Probe; protein RPS14 (P62263); analysis C6
[11] = target: proteins of HEK293T cells transiently overexpressing caspase-6 (Homo sapiens, UniProt P49368); settings: exp_ref Probe; protein CCT3 (P49368); analysis C6
[12] = target: proteins of HEK293T cells transiently overexpressing caspase-6 (Homo sapiens, UniProt Q15365); settings: protein PCBP1 (Q15365); exp_ref Probe; analysis C6
Sequence of proteins of HEK293T cells transiently overexpressing caspase-6 (Homo sapiens, UniProt Q15365) (Q15365 whole entry): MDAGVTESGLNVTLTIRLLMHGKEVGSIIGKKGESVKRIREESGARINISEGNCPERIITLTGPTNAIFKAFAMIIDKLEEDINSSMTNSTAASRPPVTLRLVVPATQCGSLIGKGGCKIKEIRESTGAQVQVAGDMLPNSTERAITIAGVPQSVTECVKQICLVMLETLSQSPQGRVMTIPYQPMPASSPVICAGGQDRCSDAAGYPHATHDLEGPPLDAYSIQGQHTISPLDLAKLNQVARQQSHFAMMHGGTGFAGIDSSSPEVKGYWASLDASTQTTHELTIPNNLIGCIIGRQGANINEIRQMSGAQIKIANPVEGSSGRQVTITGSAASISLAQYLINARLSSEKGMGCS

[13] = target: proteins of HEK293T cells transiently overexpressing caspase-6 (Homo sapiens, UniProt Q16881); settings: exp_ref Probe; protein TXNRD1 (Q16881); analysis C6
[14] = target: proteins of HEK293T cells transiently overexpressing caspase-6 (Homo sapiens, UniProt Q9H7Z7); settings: protein PTGES2 (Q9H7Z7)
Sequence of proteins of HEK293T cells transiently overexpressing caspase-6 (Homo sapiens, UniProt Q9H7Z7) (Q9H7Z7 whole entry): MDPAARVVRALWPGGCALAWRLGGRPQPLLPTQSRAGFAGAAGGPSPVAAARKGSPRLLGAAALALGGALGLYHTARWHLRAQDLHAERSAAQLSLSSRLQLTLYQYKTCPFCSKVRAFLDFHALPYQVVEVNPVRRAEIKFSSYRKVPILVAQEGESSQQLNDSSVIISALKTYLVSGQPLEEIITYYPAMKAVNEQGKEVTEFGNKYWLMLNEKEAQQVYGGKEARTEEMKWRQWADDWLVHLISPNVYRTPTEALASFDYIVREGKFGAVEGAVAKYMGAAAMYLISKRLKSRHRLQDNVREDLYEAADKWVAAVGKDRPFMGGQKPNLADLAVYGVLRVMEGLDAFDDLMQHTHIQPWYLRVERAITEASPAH

[15] = target: proteins of HEK293T cells transiently overexpressing caspase-6 (Homo sapiens, UniProt P14618); settings: protein PKM (P14618)
Sequence of proteins of HEK293T cells transiently overexpressing caspase-6 (Homo sapiens, UniProt P14618) (P14618 whole entry): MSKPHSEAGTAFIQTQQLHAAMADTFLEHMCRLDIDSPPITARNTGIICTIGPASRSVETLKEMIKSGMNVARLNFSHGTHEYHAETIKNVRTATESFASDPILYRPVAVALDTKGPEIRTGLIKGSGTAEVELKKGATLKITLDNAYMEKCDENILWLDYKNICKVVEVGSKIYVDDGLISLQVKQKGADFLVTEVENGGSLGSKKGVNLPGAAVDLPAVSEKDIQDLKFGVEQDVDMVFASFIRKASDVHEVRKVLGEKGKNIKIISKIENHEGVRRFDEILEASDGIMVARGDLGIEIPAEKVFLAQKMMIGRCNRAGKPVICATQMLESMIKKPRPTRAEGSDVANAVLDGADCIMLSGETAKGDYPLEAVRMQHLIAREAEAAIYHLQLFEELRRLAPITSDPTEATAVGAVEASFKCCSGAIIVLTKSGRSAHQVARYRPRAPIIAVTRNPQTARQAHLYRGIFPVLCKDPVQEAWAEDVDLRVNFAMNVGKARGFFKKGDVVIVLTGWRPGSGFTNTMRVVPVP

[16] = target: proteins of HEK293T cells transiently overexpressing caspase-6 (Homo sapiens, UniProt P33991); settings: exp_ref Probe; protein MCM4 (P33991); analysis C6
Sequence of proteins of HEK293T cells transiently overexpressing caspase-6 (Homo sapiens, UniProt P33991) (P33991 whole entry): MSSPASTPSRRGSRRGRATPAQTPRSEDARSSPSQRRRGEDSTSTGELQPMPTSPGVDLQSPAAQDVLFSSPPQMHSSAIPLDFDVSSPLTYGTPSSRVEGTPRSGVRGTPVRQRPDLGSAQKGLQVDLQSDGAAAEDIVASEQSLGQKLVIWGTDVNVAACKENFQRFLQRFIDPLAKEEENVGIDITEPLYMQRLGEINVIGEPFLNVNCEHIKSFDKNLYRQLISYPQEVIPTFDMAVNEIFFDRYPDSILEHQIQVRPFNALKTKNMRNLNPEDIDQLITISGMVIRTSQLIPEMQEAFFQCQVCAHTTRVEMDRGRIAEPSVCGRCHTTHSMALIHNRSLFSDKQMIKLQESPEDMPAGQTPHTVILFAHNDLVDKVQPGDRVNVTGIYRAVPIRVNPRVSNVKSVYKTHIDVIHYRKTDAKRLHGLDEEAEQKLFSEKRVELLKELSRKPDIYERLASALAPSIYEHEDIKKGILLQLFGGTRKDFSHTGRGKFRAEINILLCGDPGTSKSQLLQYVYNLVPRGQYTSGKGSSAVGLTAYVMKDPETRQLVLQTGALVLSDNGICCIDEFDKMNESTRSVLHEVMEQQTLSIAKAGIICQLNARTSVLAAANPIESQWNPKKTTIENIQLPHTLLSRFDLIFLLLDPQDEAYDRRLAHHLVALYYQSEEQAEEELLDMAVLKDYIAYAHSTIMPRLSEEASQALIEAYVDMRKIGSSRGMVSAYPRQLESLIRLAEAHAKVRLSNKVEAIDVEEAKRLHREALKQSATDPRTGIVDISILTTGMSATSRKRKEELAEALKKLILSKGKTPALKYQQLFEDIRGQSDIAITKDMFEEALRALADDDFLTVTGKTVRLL

[17] = target: T1, proteins of HEK293T cells transiently overexpressing caspase-6 (Homo sapiens, UniProt P50990); settings: protein CCT8 (P50990)
T1 sequence (P50990 1-548): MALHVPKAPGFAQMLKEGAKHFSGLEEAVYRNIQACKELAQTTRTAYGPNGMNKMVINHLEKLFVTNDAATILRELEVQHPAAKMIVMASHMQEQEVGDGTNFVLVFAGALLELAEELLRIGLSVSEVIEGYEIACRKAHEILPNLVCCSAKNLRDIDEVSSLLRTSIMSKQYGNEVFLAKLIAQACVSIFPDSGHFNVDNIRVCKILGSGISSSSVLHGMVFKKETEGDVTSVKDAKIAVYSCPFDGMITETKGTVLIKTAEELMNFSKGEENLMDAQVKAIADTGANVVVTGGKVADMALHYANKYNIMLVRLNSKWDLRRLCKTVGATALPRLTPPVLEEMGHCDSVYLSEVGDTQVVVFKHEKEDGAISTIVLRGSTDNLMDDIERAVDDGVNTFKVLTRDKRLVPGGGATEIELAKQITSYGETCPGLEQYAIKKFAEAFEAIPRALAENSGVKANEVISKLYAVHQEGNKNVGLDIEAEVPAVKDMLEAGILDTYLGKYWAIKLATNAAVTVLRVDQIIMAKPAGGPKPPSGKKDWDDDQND

[18] = target: proteins of HEK293T cells transiently overexpressing caspase-6 (Homo sapiens, UniProt Q9NNW7); settings: Probe; protein TXNRD2 Q9NNW7
[19] = target: proteins of HEK293T cells transiently overexpressing caspase-6 (Homo sapiens, UniProt P13667); settings: Probe; protein PDIA4 P13667
[20] = target: proteins of HEK293T cells transiently overexpressing caspase-6 (Homo sapiens, UniProt P50914); settings: exp_ref Probe; protein RPL14 (P50914); analysis C6
[21] = target: proteins of HEK293T cells transiently overexpressing caspase-6 (Homo sapiens, UniProt P07900); settings: exp_ref Probe; protein HSP90AA1 (P07900); analysis C6

Sequence of proteins of HEK293T cells transiently overexpressing caspase-6 (Homo sapiens, UniProt P22314) (P22314 whole entry): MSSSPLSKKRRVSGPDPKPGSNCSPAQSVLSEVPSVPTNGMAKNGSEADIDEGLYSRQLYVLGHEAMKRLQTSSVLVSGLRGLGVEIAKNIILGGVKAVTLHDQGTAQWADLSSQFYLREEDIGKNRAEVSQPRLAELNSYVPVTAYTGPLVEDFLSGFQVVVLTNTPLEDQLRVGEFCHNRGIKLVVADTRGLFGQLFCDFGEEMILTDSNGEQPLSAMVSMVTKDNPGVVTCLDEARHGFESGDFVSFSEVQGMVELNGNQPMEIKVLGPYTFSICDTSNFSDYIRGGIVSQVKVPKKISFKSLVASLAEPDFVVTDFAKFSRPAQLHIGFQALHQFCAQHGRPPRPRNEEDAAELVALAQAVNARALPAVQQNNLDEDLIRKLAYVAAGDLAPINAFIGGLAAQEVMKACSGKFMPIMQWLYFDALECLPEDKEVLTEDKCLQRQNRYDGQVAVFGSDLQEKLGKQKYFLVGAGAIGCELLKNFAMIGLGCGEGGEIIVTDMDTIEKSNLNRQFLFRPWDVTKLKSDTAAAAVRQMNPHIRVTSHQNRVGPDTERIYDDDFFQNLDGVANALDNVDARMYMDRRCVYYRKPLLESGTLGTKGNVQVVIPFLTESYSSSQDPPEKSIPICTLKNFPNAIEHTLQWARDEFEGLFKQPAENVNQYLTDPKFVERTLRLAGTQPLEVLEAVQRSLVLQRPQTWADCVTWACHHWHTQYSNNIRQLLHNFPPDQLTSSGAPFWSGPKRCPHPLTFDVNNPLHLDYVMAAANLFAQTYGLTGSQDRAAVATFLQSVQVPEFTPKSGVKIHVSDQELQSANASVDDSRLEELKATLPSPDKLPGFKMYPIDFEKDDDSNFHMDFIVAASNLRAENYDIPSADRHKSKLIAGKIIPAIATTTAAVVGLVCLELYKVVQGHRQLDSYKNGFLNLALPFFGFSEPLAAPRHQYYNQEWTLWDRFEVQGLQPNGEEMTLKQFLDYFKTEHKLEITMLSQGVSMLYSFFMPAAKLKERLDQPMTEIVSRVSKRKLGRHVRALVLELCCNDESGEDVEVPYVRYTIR

C#CCOc1ccc([C@@H]2C[C@@H](C(=O)Nc3ccc(OC(F)(F)F)cc3)CN(S(=O)(=O)C=C)C2)cc1 (relative stereo) [13-t]
enrich.exp.med [1]: 0.4056
enrich.exp.med [2]: 0.3187
enrich.exp.med ([3]; exp_ref Probe, analysis C6): 0.8833
enrich.exp.med.lin [3]: 1.845
enrich.exp.med.log2 [3]: 0.8833
enrich.exp.med [4]: -0.1215
enrich.exp.med [5]: 0.4694
enrich.exp.med [6]: 1.128
enrich.exp.med [7]: -0.6242
enrich.exp.med [8]: 0.3258
enrich.exp.med [9]: -6.8
enrich.exp.med [10]: -0.03314
enrich.exp.med [11]: 0.6394
enrich.exp.med [12]: 1.571
enrich.exp.med [13]: -0.009915
enrich.exp.med.lin [14]: 8.188
enrich.exp.med.log2 [14]: 3.034
enrich.exp.med.lin ([14]; Expt Probe, analysis C6): 8.188
enrich.exp.med.log2 ([14]; Expt Probe, analysis C6): 3.034
enrich.exp.med ([14]; exp_ref Probe, analysis C6): 3.034
enrich.exp.med ([15]; exp_ref Probe, analysis C6): 0.4939
enrich.exp.med.lin [15]: 1.408
enrich.exp.med.log2 [15]: 0.4939
enrich.exp.med [16]: 1.006
enrich.exp.med ([17]; exp_ref Probe, analysis C6): 0.932
enrich.exp.med.lin [17]: 1.908
enrich.exp.med.log2 [17]: 0.932
enrich.exp.med [18]: -0.4404
enrich.exp.med [19]: -0.4487
enrich.exp.med [20]: 0.5362
enrich.exp.med [21]: 0.7182

Source: PMC10176470, “Engaging a Non-catalytic Cysteine Residue Drives Potent and Selective Inhibition of Caspase-6” (Journal of the American Chemical Society, 2023)
